Experimental data reported in patent US9403866B2, “Compositions and methods for increasing telomerase activity” (Telomerase Activation Sciences, Inc., priority 2009, dated 2016).
Read-outs that look alike come from different tables or passages of the source.

What was measured:
[1] = Plasma levels and bioavailability in mice; format: in vivo, male C57BL/6 mice; details: male, C57BL/6, mouse, 10 mg/kg, 2% EtOH/98% water, read-out: Bioavailability % F
Method: The plasma levels of a compound following a single intravenous, oral, intra-peritoneal, or sub-cutaneous administration in male C57BL/6 mice was determined. Plasma samples were collected and used to determine the plasma concentration of the compound and metabolites. In addition tissue samples, including whisker samples, and peripheral blood mononuclear cells (PBMC) cells were collected for telomerase activity analysis.
[…] mice were divided into treatment groups. The mice were provided ad libitum SLAC-MO1 #W080208 (Shanghai Laboratories Animal Center, Shanghai, China) throughout the in-life portion of the study with the exception of the overnight fasting period prior to oral dosing. Water was available ad libitum.
Body weights were taken on the day of dose administration. Dose volume was determined based on individual body weight taken on day of dosing.
Blood samples (approximately 300 μL) were collected via cardiac puncture or via retro-orbital puncture after anesthesia into tubes containing K2-EDTA anticoagulant and 1 mg/ml NaF at the various time points after dosing. Blood was stored on ice and then plasma separated via centrifugation (8000 rpm×6 minutes). The plasma was stored at […] until LC-MS/MS analysis.

[2] = tested on: wild-type mouse lineage-depleted bone marrow cells; assay: Colony formation assay of wild-type mouse lineage-depleted bone marrow cells; format: cell-based; details: 12 days
Method: Mouse bone marrow-derived lineage-depleted cells (enriched for hematopoietic stem and progenitor cells but not a pure population) were obtained. Wild-type mouse lineage-depleted bone marrow cells from two separate mice were plated into a standard colony formation assay in the presence of compound 4 (100 nM and 500 nM), vehicle (0.1% DMSO), or nothing. After 12 days, hematopoietic colonies were enumerated (BFU-E, CFU-GM, and CFU-GEMM).

telomerase = molecular target: T1, telomerase (Mus musculus, UniProt O70372); assay: Telomerase activity in short-term liquid culture, lineage-depleted bone marrow cells from mTERT heterozygous mice; format: cell-based; details: 1 uM, three days
T1 construct: endogenous in cells; host or cells: lineage-depleted bone marrow cells, wild-type mice
T1 sequence (O70372 1-1122): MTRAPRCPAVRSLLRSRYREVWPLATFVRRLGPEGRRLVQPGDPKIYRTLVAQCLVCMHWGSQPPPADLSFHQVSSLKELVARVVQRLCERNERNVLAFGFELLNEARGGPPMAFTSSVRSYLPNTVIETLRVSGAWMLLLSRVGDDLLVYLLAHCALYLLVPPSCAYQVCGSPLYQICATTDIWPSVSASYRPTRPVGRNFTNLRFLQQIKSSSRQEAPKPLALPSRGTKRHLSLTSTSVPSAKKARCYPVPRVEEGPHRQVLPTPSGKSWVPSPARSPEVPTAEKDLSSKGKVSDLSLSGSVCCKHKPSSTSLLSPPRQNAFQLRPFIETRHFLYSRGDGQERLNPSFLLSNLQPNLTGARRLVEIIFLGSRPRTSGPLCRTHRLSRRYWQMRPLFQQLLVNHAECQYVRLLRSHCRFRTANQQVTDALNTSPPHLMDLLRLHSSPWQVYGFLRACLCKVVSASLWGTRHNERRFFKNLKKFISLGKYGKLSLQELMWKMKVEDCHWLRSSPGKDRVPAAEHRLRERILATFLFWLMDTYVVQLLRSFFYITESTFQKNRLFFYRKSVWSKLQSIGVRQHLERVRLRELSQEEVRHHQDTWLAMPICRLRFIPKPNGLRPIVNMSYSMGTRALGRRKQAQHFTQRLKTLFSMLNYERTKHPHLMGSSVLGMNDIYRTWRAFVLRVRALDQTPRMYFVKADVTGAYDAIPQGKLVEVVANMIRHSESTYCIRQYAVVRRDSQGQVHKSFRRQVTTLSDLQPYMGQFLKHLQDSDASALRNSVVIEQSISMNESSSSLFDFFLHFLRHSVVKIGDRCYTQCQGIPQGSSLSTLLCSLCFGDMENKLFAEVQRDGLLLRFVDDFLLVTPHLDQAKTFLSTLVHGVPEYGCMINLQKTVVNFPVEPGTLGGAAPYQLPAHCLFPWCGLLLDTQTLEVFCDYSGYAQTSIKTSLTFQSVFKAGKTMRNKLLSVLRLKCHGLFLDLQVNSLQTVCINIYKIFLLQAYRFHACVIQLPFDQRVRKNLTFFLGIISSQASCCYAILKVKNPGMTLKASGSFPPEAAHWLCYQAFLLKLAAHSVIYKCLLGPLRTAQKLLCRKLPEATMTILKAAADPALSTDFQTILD
Method: Lineage-depleted bone marrow cells from mTERT heterozygous and wild type mice were grown in IMDM+15% FBS containing stem cell factor (Kitl), IL-3, and IL-11 for three days in the presence of compound 4 (1 uM, 100 nM, or 10 nM), vehicle (0.1% DMSO), or nothing. Telomerase activity in the wild-type cells increased by 40-50% when treated with 100 nM and 1 uM compound 4, relative to the vehicle-treated control.
Telomerase activity in the mTERT heterozygous cells increased by 50% when treated with 1 uM compound 4, relative to the vehicle-treated control.

[3] = tested on: mTERT heterozygous mouse lineage-depleted bone marrow cells; assay: Colony formation assay of mTERT heterozygous mouse lineage-depleted bone marrow cells; format: cell-based; details: 12 days
Method: mTERT heterozygous mouse lineage-depleted bone marrow cells were plated into a standard colony formation assay in the presence of compound 4 (100 nm and 500 nM), vehicle (0.1% DMSO), or nothing. After 12 days, hematopoietic colonies were enumerated (BFU-E, CFU-GM, and CFU-GEMM). Total colony counts were: untreated, 67; vehicle-treated, 64; 100 nM compound 4, 68; and 500 nM compound 4, 77.

SAECs = assay: Long-term replicative capacity of SAECs in continuous culture; format: cell-based, human; details: 0.1 μM, 60 days continuous culture
Method: SAECs were treated continuously with 0.1 μM of compound 4 in a final concentration of 0.004% ethanol for 60 days in continuous culture. Compound 4 increased the long-term replicative capacity of SAECs by about 2 population doublings (4× increase in calculated cell number).

lung fibroblasts = assay: Alamar Blue Proliferation Assay in lung fibroblasts; format: cell-based, human; details: 3 days
Method: Human SAECs or human fibroblasts were grown in the presence of different concentrations of compound 4 in a final concentration of 1% DMSO in the medium. After 3 days the cells were harvested and proliferation was measured using the Alamar Blue Proliferation Assay.

With `CC(C)C(N)C(=O)OC1CCC23CC24CCC2(C)C(C5(C)CCC(C(C)(C)O)O5)C(O)CC2(C)C4CC(O)C3C1(C)C` (stereo not drawn) [Compound 4, 2-(L)-Amino-3-methyl-butyric acid 6α,16β-dihydroxy-17-[5-(1-hydroxy-1-methyl-ethyl)-2-methyl-tetrahydro-furan-2-yl]-4,4,13,14-tetramethyl-tetradecahydro-cyclopropa[9,10]cyclopenta[a]phenanthren-3β-yl ester] the bioavailability ([1]; PO) was 48%, the bioavailability ([1]; SC) was 66% and the BFU-E colonies ([2]; Mouse 1, 100 nM) was 50. The CFU-GEMM colonies ([2]; Mouse 1, 100 nM) was 0, the CFU-GM colonies ([2]; Mouse 1, 100 nM) was 111 and the Total colony counts ([2]; Mouse 1, 100 nM) was 161. It also gave a BFU-E colonies ([2]; Mouse 1, 500 nM) of 38, a CFU-GEMM colonies ([2]; Mouse 1, 500 nM) of 1 and a CFU-GM colonies ([2]; Mouse 1, 500 nM) of 124. It also gave a Total colony counts ([2]; Mouse 1, 500 nM) of 162, a BFU-E colonies ([2]; Mouse 2, 100 nM) of 31 and a CFU-GEMM colonies ([2]; Mouse 2, 100 nM) of 1. The CFU-GM colonies ([2]; Mouse 2, 100 nM) was 90, the Total colony counts ([2]; Mouse 2, 100 nM) was 121 and the BFU-E colonies ([2]; Mouse 2, 500 nM) was 29. The CFU-GEMM colonies ([2]; Mouse 2, 500 nM) was 2, the CFU-GM colonies ([2]; Mouse 2, 500 nM) was 98 and the Total colony counts ([2]; Mouse 2, 500 nM) was 129. The “Telomerase activity increase relative to the vehicle-treated control” value (telomerase) was 50%, the BFU-E colonies ([3]; 100 nM) was 22 and the CFU-E colonies ([3]; 100 nM) was 43. It also gave a CFU-GEMM colonies ([3]; 100 nM) of 3, a Total colony counts ([3]; 100 nM) of 68 and a BFU-E colonies ([3]; 500 nM) of 27. For the same compound, the CFU-E colonies ([3]; 500 nM) was 48, the CFU-GEMM colonies ([3]; 500 nM) was 1 and the Total colony counts ([3]; 500 nM) was 77. The “increase in calculated cell number” value (SAECs) was 4 ×, the “increase of long-term replicative capacity” value (SAECs; 0.004% ethanol) was “about 2 population doublings” and the “effect on short-term proliferation” value (lung fibroblasts) was “No effect”.
